Laboratory results published in ChEMBL document CHEMBL4765272, “Design, synthesis and biological evaluation of tyrosine derivatives as Mcl-1 inhibitors” (Eur J Med Chem, 2020).
Active and inactive are the calls of the source. The rule behind the calls is not given here.

Key:
[1] = Inhibition of 5-FAM-BH3 peptide binding to N-terminal His8-tagged human MCL-1 (209 to 327 residues)/mouse MCL-1 (152 to 189 residues) expressed in Escherichia coli BL21 (DE3) by fluorescence polarization assay
[2] = molecular target: Bcl-2-like protein 1 (Homo sapiens) (UniProt Q07817); assay: Inhibition of 5-FAM-BH3 peptide binding to human N-terminal GST-tagged BCL-XL (1 to 212 residues) expressed in Escherichia coli BL21 (DE3) at 100 uM by fluorescence polarization assay relative to control
Chain of Bcl-2-like protein 1 (Homo sapiens) (Q07817 whole entry, the tested form may be a part, canonical isoform): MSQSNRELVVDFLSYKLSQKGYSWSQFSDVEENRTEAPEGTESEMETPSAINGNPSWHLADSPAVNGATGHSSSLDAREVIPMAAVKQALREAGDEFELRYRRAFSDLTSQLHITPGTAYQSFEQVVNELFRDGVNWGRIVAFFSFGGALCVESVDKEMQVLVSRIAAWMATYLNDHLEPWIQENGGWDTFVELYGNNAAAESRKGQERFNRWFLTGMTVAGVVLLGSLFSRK

[3] = Inhibition of 5-FAM-BH3 peptide binding to human N-terminal GST-tagged BCL-2 (1 to 34 residues)/BCL-XL (29 to 44 residues)/BCL-2 isoform 2 (92 to 207 residues) expressed in Escherichia coli BL21 (DE3) by fluorescence polarization assay
[4] = Antiproliferative activity against human KM3 cells incubated for 72 hrs by MTT assay; assay type: functional, cell-based; conditions: KM3, 72 h
HepG2 [5] = assay: Antiproliferative activity against human HepG2 cells incubated for 72 hrs by MTT assay; assay type: functional, cell-based; conditions: HepG2, 72 h
RPMI-8226 = assay: Antiproliferative activity against human RPMI-8226 cells incubated for 72 hrs by MTT assay; assay type: functional, cell-based; conditions: RPMI-8226, 72 h
Jurkat = assay: Antiproliferative activity against human Jurkat cells incubated for 72 hrs by MTT assay; assay type: functional, cell-based
MOLT-4 = assay: Antiproliferative activity against human MOLT-4 cells incubated for 72 hrs by MTT assay; assay type: functional, cell-based; conditions: MOLT-4, 72 h
PC-3 = assay: Antiproliferative activity against human PC-3 cells incubated for 72 hrs by MTT assay; assay type: functional, cell-based; conditions: PC-3, 72 h
NCI-H1299 = assay: Antiproliferative activity against human NCI-H1299 cells incubated for 72 hrs by MTT assay; assay type: functional, cell-based; conditions: NCI-H1299, 72 h
[6] = Induction of apoptosis in human KM3 cells assessed as viable cells at 10 uM measured after 48 hrs by Annexin V-FITC/propidium iodide staining based flow cytometry (reference value: 96.24%); assay type: functional; conditions: read-out: Activity
[7] = Induction of apoptosis in human KM3 cells assessed as early apoptotic cells at 10 uM measured after 48 hrs by Annexin V-FITC/propidium iodide staining based flow cytometry (reference value: 2.18%); assay type: functional
[8] = Induction of apoptosis in human KM3 cells assessed as late apoptotic cells at 10 uM measured after 48 hrs by Annexin V-FITC/propidium iodide staining based flow cytometry (reference value: 1.15%); assay type: functional
[9] = Induction of apoptosis in human KM3 cells assessed as necrotic cells at 10 uM measured after 48 hrs by Annexin V-FITC/propidium iodide staining based flow cytometry (reference value: 0.42%); assay type: functional
[10] = Induction of apoptosis in human KM3 cells assessed as viable cells at 20 uM measured after 48 hrs by Annexin V-FITC/propidium iodide staining based flow cytometry (reference value: 96.24%); assay type: functional; conditions: read-out: Activity
[11] = Induction of apoptosis in human KM3 cells assessed as early apoptotic cells at 20 uM measured after 48 hrs by Annexin V-FITC/propidium iodide staining based flow cytometry (reference value: 2.18%); assay type: functional
[12] = Induction of apoptosis in human KM3 cells assessed as late apoptotic cells at 20 uM measured after 48 hrs by Annexin V-FITC/propidium iodide staining based flow cytometry (reference value: 1.15%); assay type: functional
[13] = Induction of apoptosis in human KM3 cells assessed as necrotic cells at 20 uM measured after 48 hrs by Annexin V-FITC/propidium iodide staining based flow cytometry (reference value: 0.42%); assay type: functional
HepG2 [14] = assay: Induction of apoptosis in human HepG2 cells assessed as viable cells at 10 uM measured after 48 hrs by Annexin V-FITC/propidium iodide staining based flow cytometry (reference value: 96.84%); assay type: functional; conditions: read-out: Activity
HepG2 [15] = assay: Induction of apoptosis in human HepG2 cells assessed as early apoptotic cells at 10 uM measured after 48 hrs by Annexin V-FITC/propidium iodide staining based flow cytometry (reference value: 0.71%); assay type: functional
HepG2 [16] = assay: Induction of apoptosis in human HepG2 cells assessed as late apoptotic cells at 10 uM measured after 48 hrs by Annexin V-FITC/propidium iodide staining based flow cytometry (reference value: 1.93%); assay type: functional
HepG2 [17] = assay: Induction of apoptosis in human HepG2 cells assessed as necrotic cells at 10 uM measured after 48 hrs by Annexin V-FITC/propidium iodide staining based flow cytometry (reference value: 0.52%); assay type: functional
HepG2 [18] = assay: Induction of apoptosis in human HepG2 cells assessed as viable cells at 20 uM measured after 48 hrs by Annexin V-FITC/propidium iodide staining based flow cytometry (reference value: 96.84%); assay type: functional; conditions: read-out: Activity
HepG2 [19] = assay: Induction of apoptosis in human HepG2 cells assessed as early apoptotic cells at 20 uM measured after 48 hrs by Annexin V-FITC/propidium iodide staining based flow cytometry (reference value: 0.71%); assay type: functional
HepG2 [20] = assay: Induction of apoptosis in human HepG2 cells assessed as late apoptotic cells at 20 uM measured after 48 hrs by Annexin V-FITC/propidium iodide staining based flow cytometry (reference value: 1.93%); assay type: functional
HepG2 [21] = assay: Induction of apoptosis in human HepG2 cells assessed as necrotic cells at 20 uM measured after 48 hrs by Annexin V-FITC/propidium iodide staining based flow cytometry (reference value: 0.52%); assay type: functional
HepG2 [22] = assay: Induction of apoptosis in human HepG2 cells at 10 to 20 uM measured after 48 hrs by TUNEL staining based fluorescence microscopy; assay type: functional, cell-based; conditions: dose 10-20 µM
Homo sapiens = organism: Homo sapiens; assay: Inhibition of 5-FAM-BH3 peptide binding to human N-terminal GST-tagged BCL-2 (1 to 34 residues)/BCL-XL (29 to 44 residues)/BCL-2 isoform 2 (92 to 207 residues) expressed in Escherichia coli BL21 (DE3) at 100 uM by fluorescence polarization assay relative to control
KM3 = assay: Induction of apoptosis in human KM3 cells measured after 48 hrs by Annexin V-FITC/propidium iodide staining based flow cytometry; assay type: functional, cell-based
HepG2 [23] = assay: Induction of apoptosis in human HepG2 cells measured after 48 hrs by Annexin V-FITC/propidium iodide staining based flow cytometry; assay type: functional, cell-based
HepG2 [24] = assay: Induction of apoptosis in human HepG2 cells measured after 48 hrs by TUNEL staining based fluorescence microscopy; assay type: functional, cell-based
HepG2 [25] = assay: Induction of apoptosis in human HepG2 cells transfected with siMcl-1 at 10 uM measured after 48 hrs by Annexin V-FITC/propidium iodide staining based flow cytometry; assay type: functional, cell-based

| Compound | Ki [1] [µM] | inhibition [2] [%] | IC50 [4] [µM] | IC50 (HepG2 [5]) [µM] | IC50 (RPMI-8226) [µM] | IC50 (Jurkat) [µM] | IC50 (MOLT-4) [µM] | IC50 (PC-3) [µM] | IC50 (NCI-H1299) [µM] | viability at 10 µM [6] [%] | Activity [7] [%] | Activity [8] [%] | Activity [9] [%] | viability at 20 µM [10] [%] | Activity [11] [%] | Activity [12] [%] | Activity [13] [%] | viability at 10 µM (HepG2 [14]) [%] | Activity (HepG2 [15]) [%] | Activity (HepG2 [16]) [%] | also measured |
| --- | --- | --- | --- | --- | --- | --- | --- | --- | --- | --- | --- | --- | --- | --- | --- | --- | --- | --- | --- | --- | --- |
| O=C(O)CSc1cc(NS(=O)(=O)c2ccc(Br)cc2)c2ccccc2c1O | 0.21 | > 50 | 11.2 | 11.4 | 5.77 | 9.79 | 3.14 | 8.43 | 6.08 | 72.7 | 15.35 | 11.64 | 0.31 | 23.8 | 40.5 | 34.2 | 1.52 | 76.4 | 2.23 | 20.03 | Ki [3]: 11 µM; Activity (HepG2 [17]): 1.36%; viability at 20 µM (HepG2 [18]): 11%; Activity (HepG2 [19]): 2.44%; Activity (HepG2 [20]): 86.11%; Activity (HepG2 [21]): 0.45%; Activity (HepG2 [22]): Active |
| Cc1ccc(CC(=O)N[C@@H](Cc2cc(Br)c(OCCOc3cccc4ccccc34)c(Br)c2)C(=O)NS(=O)(=O)c2ccc(NCCCc3ccccc3)c([N+](=O)[O-])c2)cc1 | 0.23 | > 50 | 11.5 | 7.5 | 7.67 | 16.5 | 17.7 | 18.9 | 21.6 | 84.5 | 10.47 | 4.31 | 0.73 | 8.34 | 16.21 | 74.52 | 0.93 | 85.9 | 2.44 | 9.03 | inhibition (Homo sapiens): > 50%; Activity (KM3): Dose-dependent effect; Activity (HepG2 [23]): Dose-dependent effect; Activity (HepG2 [17]): 2.63%; viability at 20 µM (HepG2 [18]): 15.6%; Activity (HepG2 [19]): 2.38%; Activity (HepG2 [20]): 80.03%; Activity (HepG2 [21]): 2.04%; Activity (HepG2 [24]): Dose-dependent effect; Activity (HepG2 [25]): inactive |
| Cc1cc(OCCCOc2ccc(C[C@H](NC(=O)OC(C)(C)C)C(=O)NS(=O)(=O)c3ccc(NCCCc4ccccc4)c([N+](=O)[O-])c3)cc2)cc(C)c1Cl | 0.18 | > 50 | 8.25 | 6.42 | 6.34 | 15.1 | 17.4 | 15.8 | 20.7 | 82.3 | 12.11 | 4.94 | 0.66 | 12.9 | 20.71 | 64.31 | 2.09 | 88.6 | 2.24 | 7.18 | Ki [3]: 1.1 µM; Activity (KM3): Dose-dependent effect; Activity (HepG2 [23]): Dose-dependent effect; Activity (HepG2 [17]): 2.02%; viability at 20 µM (HepG2 [18]): 15.4%; Activity (HepG2 [19]): 3.4%; Activity (HepG2 [20]): 78.54%; Activity (HepG2 [21]): 2.64%; Activity (HepG2 [24]): Dose-dependent effect; Activity (HepG2 [25]): inactive |
